From patent US10653717B2, “Antibiotic compositions” (priority 2016, dated 2020)

Assays:
[1] = test system: ECO-1: Escherichia coli 1139#; assay: MIC of silver with antibiotics on clinical isolated MDR Gram-negative bacteria; format: cell-based; conditions: antibiotic 4 μM
Description: (§1) There are five clinically most difficult-to-treat MDR Gram-negative pathogen species: Klebsiella pneumonia, Acinetobacter baumannii, Pseudomonas aeruginosa, Enterobacter cloacae and Escherichia coli. One strain from each species was isolated, and overnight cultures were diluted 1:1000 times in LB medium, and treated with serial concentrations of Ag^+ and antibiotics in combinations for 24 h (Table 10).
(§2) Five clinical isolated MDR Gram-negative strains were grown until an OD600 nm of 0.4, and were diluted 1:1,000 into 100 μl LB medium in 96 micro-well plates. […] The cultures treated with the same serial dilutions of 100 μl ebselen and silver nitrate were used as the positive control.

[2] = test system: PA-1: Pseudomonas aeruginosa 1298#; assay: as above; format: cell-based; conditions: antibiotic 4 μM
Description: as §1, §2

[3] = test system: AB-1: Acinetobacter baumannii H#; assay: as above; format: cell-based; conditions: antibiotic 4 μM
Description: as §1, §2

ECL-2: E. cloacae 2301# [4] = assay: as above; format: cell-based, Enterobacter cloacae; conditions: antibiotic 4 μM
Description: as §1, §2

[5] = test system: KP-2: K. pneumonia subsp. pneumonia 0322#; assay: as above; format: cell-based, Klebsiella pneumonia; conditions: antibiotic 4 μM
Description: as §1, §2

[6] = test system: AB-1: Acinetobacter baumannii H#; assay: Drug sensitivity of clinical isolated strain; format: cell-based; further: key: R: resistant; S: sensitive
ECO-2: E. coli 2219# = assay: Drug sensitivity of clinical isolated strain; format: cell-based, Escherichia coli; conditions: ECO-2 (Table 3); further: key: R: resistant; S: sensitive
ECL-2: E. cloacae 2301# [7] = assay: Drug sensitivity of clinical isolated strain; format: cell-based, Enterobacter cloacae; further: key: R: resistant; S: sensitive
[8] = test system: PA-2: P. aeruginose 0009#; assay: Drug sensitivity of clinical isolated strain; format: cell-based, Pseudomonas aeruginosa; conditions: PA-2 (Table 3); further: key: R: resistant; S: sensitive
[9] = test system: PA-1: Pseudomonas aeruginose 1298#; assay: Drug sensitivity of clinical isolated strain; format: cell-based, Pseudomonas aeruginosa; further: key: R: resistant; S: sensitive
[10] = test system: KP-1: Klebsiella pneumonia subsp. pneumonia 13#; assay: Drug sensitivity of clinical isolated strain; format: cell-based; conditions: KP-1 (Table 3); further: key: R: resistant; S: sensitive
[11] = test system: ECO-1: Escherichia coli 1139#; assay: Drug sensitivity of clinical isolated strain; format: cell-based; further: key: R: resistant; S: sensitive
ECO-3: E. coli ZY-1 = assay: Drug sensitivity of clinical isolated strain; format: cell-based, Escherichia coli; further: key: R: resistant; S: sensitive
[12] = test system: KP-2: K. pneumonia subsp. pneumonia 0322#; assay: Drug sensitivity of clinical isolated strain; format: cell-based, Klebsiella pneumonia; further: key: R: resistant; S: sensitive
AB-2: A. baumannii 0361# = assay: Drug sensitivity of clinical isolated strain; format: cell-based, Acinetobacter baumannii; conditions: AB-2 (Table 3); further: key: R: resistant; S: sensitive
[13] = test system: ECL-1: Enterobacter cloacae 0431#; assay: Drug sensitivity of clinical isolated strain; format: cell-based; conditions: ECL-1 (Table 3); further: key: R: resistant; S: sensitive

CN[C@@H]1[C@@H](O)[C@@H](O[C@@H]2[C@@H](O)[C@H](O[C@H]3O[C@H]([C@@H](C)O)[C@@H](O)[C@H](O)[C@H]3N)[C@@H](N)C[C@H]2N)OC[C@]1(C)O [Geneticin]
MIC of silver in the presence of different antibiotics [1]: 40 µM | MIC of silver in the presence of different antibiotics [2]: 80 µM | MIC of silver in the presence of different antibiotics [3]: 80 µM | MIC of silver in the presence of different antibiotics (ECL-2: E. cloacae 2301# [4]): 160 µM | MIC of silver in the presence of different antibiotics [5]: 160 µM

NC[C@H]1O[C@H](O[C@H]2[C@H](O)[C@@H](O[C@H]3O[C@H](CO)[C@@H](O)[C@H](N)[C@H]3O)[C@H](N)C[C@@H]2N)[C@H](O)[C@@H](O)[C@@H]1O [Kanamycin]
MIC of silver in the presence of different antibiotics [1]: 40 µM | MIC of silver in the presence of different antibiotics [2]: 80 µM | MIC of silver in the presence of different antibiotics [3]: 80 µM | MIC of silver in the presence of different antibiotics (ECL-2: E. cloacae 2301# [4]): 160 µM | MIC of silver in the presence of different antibiotics [5]: 160 µM

C[C@]1(Cn2ccnn2)[C@H](C(=O)O)N2C(=O)C[C@H]2S1(=O)=O [Tazobactam]
Drug sensitivity ([6]; AB-1 (Table 3)): R | Drug sensitivity ([6]; AB-1 (table of Example 3)): R | Drug sensitivity (ECO-2: E. coli 2219#): R/S | Drug sensitivity (ECL-2: E. cloacae 2301# [7]; ECL-2 (Table 3)): R | Drug sensitivity (ECL-2: E. cloacae 2301# [7]; ECL-2 (table of Example 3)): R | Drug sensitivity [8]: R | Drug sensitivity ([9]; PA-1 (Table 3)): R/S | Drug sensitivity ([9]; PA-1 (table of Example 3)): R/S | Drug sensitivity [10]: R | Drug sensitivity ([11]; ECO-1 (Table 3)): S | Drug sensitivity ([11]; ECO-1 (table of Example 3)): S | Drug sensitivity (ECO-3: E. coli ZY-1; E. coli ZY-1 (Table 7)): S | Drug sensitivity (ECO-3: E. coli ZY-1; ECO-3 (Table 3)): S | Drug sensitivity ([12]; KP-2 (Table 3)): R | Drug sensitivity ([12]; KP-2 (table of Example 3)): R | Drug sensitivity (AB-2: A. baumannii 0361#): R | Drug sensitivity [13]: S

CN(C)[C@@H]1C(O)=C(C(N)=O)C(=O)[C@@]2(O)C(O)=C3C(=O)c4c(O)cccc4[C@@](C)(O)[C@H]3C[C@@H]12 [Tetracycline]
MIC of silver in the presence of different antibiotics [1]: 80 µM | MIC of silver in the presence of different antibiotics [2]: 80 µM | MIC of silver in the presence of different antibiotics [3]: 80 µM | Drug sensitivity ([6]; AB-1 (Table 3)): R | Drug sensitivity ([6]; AB-1 (table of Example 3)): R | Drug sensitivity (ECO-2: E. coli 2219#): S | Drug sensitivity (ECL-2: E. cloacae 2301# [7]; ECL-2 (Table 3)): R | Drug sensitivity (ECL-2: E. cloacae 2301# [7]; ECL-2 (table of Example 3)): R | Drug sensitivity [8]: R | Drug sensitivity ([9]; PA-1 (Table 3)): R | Drug sensitivity ([9]; PA-1 (table of Example 3)): R | Drug sensitivity ([11]; ECO-1 (Table 3)): R | Drug sensitivity ([11]; ECO-1 (table of Example 3)): R | Drug sensitivity (ECO-3: E. coli ZY-1; E. coli ZY-1 (Table 7)): R | Drug sensitivity (ECO-3: E. coli ZY-1; ECO-3 (Table 3)): S | Drug sensitivity (AB-2: A. baumannii 0361#): R | Drug sensitivity [13]: R
